The text below walks through data of patent US7598206B2, “Fungicidal mixtures” (BASF Aktiengesellschaft, priority 2004, dated 2009).

SMILES strings stand for the structures.

Assay type in all cases: in vivo
Assay [1] relates to Botrytis cinerea. As to the kind of experiment: Use example 1: activity against gray mold on bell pepper leaves, 1 day protective application. As to conditions: efficacy in % of untreated control (Abbot), sprayed 1 day before inoculation, rated after 5 days, read-out: Observed activity (%). The protocol: (§1) The active compounds were prepared jointly or separately as a stock solution with 25 mg of active compound which was made up to 10 ml using a mixture of acetone and/or DMSO and the emulsifier Uniperol® EL (wetting agent having emulsifying and dispersing action based on ethoxylated alkylphenols) in a volume ratio of solvent/emulsifier of 99 to 1. The mixture was then made up with water to 100 ml. This stock solution was diluted with the solvent/emulsifier/water mixture described to the concentration of active compounds stated below.
(§2) The active compounds epoxiconazole and pyraclostrobin were used as commercial formulations and diluted with water to the stated concentration.
(§3) The visually determined percentages of infected leaf areas were converted into efficacies in % of the untreated control:
(§4) The efficacy (E) is calculated as follows using Abbot's formula: E=(1−α/β)·100 • α corresponds to the fungicidal infection of the treated plants in % and • β corresponds to the fungicidal infection of the untreated (control) plants in % […]
(§5) The expected efficacies of mixtures of active compounds were determined using Colby's formula (Colby, S. R. “Calculating synergistic and antagonistic responses of herbicide combinations”, Weeds, 15, 1967, p. 20-22) and compared with the observed efficacies. […]

The subject of assay [2] is Botrytis cinerea. Description: Use example 2: activity against gray mold on bell pepper leaves, 5 day protective application. Conditions: sprayed 5 days before inoculation, read-out: Observed activity (%). The protocol:
as §1, §2, §3
The efficacy (E) is calculated as follows using Abbot's formula: E=(1−α/β)·100 • α corresponds to the fungicidal infection of the treated plants in % and • β corresponds to the fungicidal infection of the untreated (control) plants in %
An efficacy of 0 means that the infection level of the treated plants corresponds to that of the untreated control plants; an efficacy of 100 means that the treated plants were not infected.
The expected efficacies of mixtures of active compounds were determined using Colby's formula (Colby, S. R. “Calculating synergistic and antagonistic responses of herbicide combinations”, Weeds, 15, 1967, p. 20-22) and compared with the observed efficacies.
Colby's formula: E=x+y−x·y/100 • E expected efficacy, expressed in % of the untreated control, when using the mixture of the active compounds A and B at the concentrations a and b • x efficacy, expressed in % of the untreated control, when using the active compound A at the concentration a • y efficacy, expressed in % of the untreated control, when using the active compound B at the concentration b
Use example 2-activity against gray mold on bell pepper leaves caused by Botrytis cinerea, 5 day protective application
Bell pepper seedlings of the cultivar “Neusiedler Ideal Elite” were, after 2-3 leaves were well developed, sprayed to runoff point with an aqueous suspension having the active compound concentration given below. After 5 days, the treated plants were inoculated with a spore suspension of Botrytis cinerea which comprised 1.7×10^6 spores/ml in a 2% strength aqueous biomalt solution. The test plants were then placed in a dark climatized chamber at 22 to 24° C. and high atmospheric humidity. After 5 days, the extent of the fungal infection on the leaves could be determined visually in %.

A further assay has as its system Alternaria solani. Description: Use example 3: 5 day protective activity against early blight of tomato. As to conditions: sprayed 5 days before infection, rated after 5 days, read-out: Observed activity (%). Here is the method: as §1, §2, §3, §4, §5

`Fc1ccc([C@]2(Cn3cncn3)O[C@H]2c2ccccc2Cl)cc1` (racemic) [epoxiconazole (A7), (2RS,3SR)-1-[3-(2-chlorophenyl)-2,3-epoxy-2-(4-fluorophenyl)propyl]-1H-1,2,4-triazole]: the inhibition at 4 ppm with Botrytis cinerea [1] came to 0%.
Consider `CN1OC(c2ccc(Cl)cc2)CC1(C)c1cccnc1` (centres unmarked) [SYP-Z048 (I)], for which the inhibition at 4 ppm with Botrytis cinerea [1] was determined as 70%. The inhibition at 16 ppm in the assay on Botrytis cinerea [2] (16 ppm, rated after 5 days) turned out to be 0%. Also, in the assay with Alternaria solani (1 ppm), the inhibition at 1 ppm amounted to 0%.
For `O=C(Nc1ccccc1-c1ccc(Cl)cc1)c1cccnc1Cl` [boscalid (C3), 2-chloro-N-(4′-chlorobiphenyl-2-yl)nicotinamide], the values for the inhibition at 4 ppm with Botrytis cinerea [2] (4 ppm) and in the assay on Alternaria solani (4 ppm) were 0% and 56%, respectively.
Take `COC(=O)N(OC)c1ccccc1COc1ccn(-c2ccc(Cl)cc2)n1` [pyraclostrobin (B9), methyl N-{2-[1-(4-chlorophenyl)-1H-pyrazol-3-yloxymethyl]phenyl}(N-methoxy)carbamate]: the inhibition at 63 ppm in the assay with Botrytis cinerea [2] (63 ppm, commercial formulation) stood at 20%.
For the molecule `Cc1ccc(N(SC(F)(Cl)Cl)S(=O)(=O)N(C)C)cc1` [tolylfluanid (F29), N-dichlorofluoromethylthio-N′,N′-dimethyl-N-p-tolylsulfamide], the inhibition at 250 ppm in the assay on Botrytis cinerea [2] (250 ppm) turned out to be 20%.
